# PMC3567251 (Biochemistry, 2012)
# “And” between values parts separate entries of the source, which are not always exact repeats. Equal values may be shown once. “Also recorded” adds a separate entry of the source. Read-outs that look alike come from different tables or passages of the source.
# Tests used:
# PaMTADA [1] = target: T1, PaMTADA (Pseudomonas aeruginosa, UniProt Q9HZ64); format: biochemical
# PaMTADA [2] = format: biochemical, Pseudomonas aeruginosa; conditions: times higher than PfADA
# bovine ADA = conditions: result in words; cited from earlier work
# PfADA [3] = conditions: substrate; ref Ting et al. [13]; cited from earlier work
# human ADA [4] = conditions: cited from earlier work
# PfADA [5] = conditions: cited from earlier work
# human ADA [6] = conditions: cited from earlier work; for inhibition of human ADA: result in words
# P. aeruginosa PAO1 = test: Growth of P. aeruginosa PAO1 with or without MTCF; format: cell-based; conditions: up to 1 μM, 36 hours, 37 °C
# PaMTADA [7] = target: T2, PaMTADA (Pseudomonas aeruginosa, UniProt Q9HZ64); test: Inhibition of PaMTADA activity in cell lysates; format: biochemical, P. aeruginosa PAO1; conditions: cell lysate, 50 nM inhibitor
# T2 sequence (Q9HZ64 1-444): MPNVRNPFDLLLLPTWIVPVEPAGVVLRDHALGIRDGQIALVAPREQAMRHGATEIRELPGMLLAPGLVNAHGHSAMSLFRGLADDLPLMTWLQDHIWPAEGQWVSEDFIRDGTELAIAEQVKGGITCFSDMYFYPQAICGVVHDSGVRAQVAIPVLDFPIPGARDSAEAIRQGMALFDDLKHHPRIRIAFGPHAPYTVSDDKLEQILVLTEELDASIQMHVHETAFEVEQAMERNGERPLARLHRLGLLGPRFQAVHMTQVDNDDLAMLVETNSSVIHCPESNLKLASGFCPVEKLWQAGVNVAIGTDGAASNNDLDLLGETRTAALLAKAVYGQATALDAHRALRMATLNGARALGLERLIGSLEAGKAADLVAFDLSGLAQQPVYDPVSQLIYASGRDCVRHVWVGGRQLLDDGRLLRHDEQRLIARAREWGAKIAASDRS
# [8] = target: T3, cellular PaMTADA activity (Pseudomonas aeruginosa, UniProt Q9HZ64); test: Inhibition of cellular PaMTADA; format: cell-based, P. aeruginosa PAO1
# T3 sequence (Q9HZ64 1-444): T2 sequence (Q9HZ64 1-444)
# PfADA [9] = test: Inhibition of PfADA; format: biochemical, Plasmodium falciparum; conditions: times weaker than CF
# PaMTADA [10] = target: T1, PaMTADA; format: biochemical; conditions: times weaker than MTDCF
# [11] = substrate, ref Tyler et al. [16]
# [12] = read-out: Ki* from slow-onset inhibition, Ki* values
# [13] = equilibrium dissociation constant
molecule,measurement,setting,value
5′-methylthioadenosine [MTA],catalytic efficiency (kcat/Km) for MTA relative to adenosine,PaMTADA [1]; MTA over adenosine,40 fold
same,Km,"PaMTADA [1]; substrate, 25 °C, pH 7.4",1.5 ± 0.3 µM
same,kcat,"PaMTADA [1]; substrate, 25 °C, pH 7.4",24.6 s⁻¹ and 24.6 ± 0.8 s⁻¹
same,catalytic efficiency of PaMTADA on MTA relative to PfADA,PaMTADA [2],160 times
same,use as substrate by bovine ADA,bovine ADA,do not utilize
same,Km,PfADA [3],170 ± 20 µM
same,kcat,PfADA [3],15.0 ± 0.9 s⁻¹
same,use as substrate by human ADA,human ADA [4]; result in words,do not utilize
same,kcat,human ADA [4]; [11],< 0.02 s⁻¹
"OC[C@H]1O[C@@H](n2cnc3c2N=CNC[C@H]3O)[C@H](O)[C@@H]1O [Coformycin (CF), (2R,3R,4S,5R)-2-((R)-8-hydroxy-7,8-dihydroimidazo[4,5-d][1,3]diazepin-3(6H)-yl)-5-(hydroxymethyl)tetrahydrofuran-3,4-diol, reference compound]",Ki,PfADA [5]; [12],0.08 ± 0.02 nM
same,Ki,human ADA [6]; [12],0.11 ± 0.02 nM
"CSC[C@H]1O[C@@H](n2cnc3c2N=CNC[C@H]3O)[C@H](O)[C@@H]1O [MTCF, 5′-methylthiocoformycin]",Ki,PfADA [5]; [12],0.4 ± 0.1 nM
same,effect on cell growth based on OD600,P. aeruginosa PAO1,no effect
same,Ki,human ADA [6]; [13],> 10000 nM
same,inhibition of human ADA,human ADA [6],no significant inhibition; also recorded: no inhibitory effect; also recorded: no significant inhibitory effects
same,degradation of MTA,PaMTADA [7],completely blocked
same,PaMTADA activity,[8]; 500 nM MTCF in LB medium plus 100 nM MTCF added to cell lysate,All PaMTADA activity was inhibited
same,concentration of maximal inhibition,[8]; MTCF in LB medium,10 nM
"CSC[C@H]1O[C@@H](n2cnc3c2N=CNC[C@H]3O)C[C@@H]1O [MTDCF, 5′-methylthio-2′-deoxycoformycin]",Ki,PfADA [5]; [12],0.7 ± 0.2 nM
same,binding affinity for PfADA relative to CF,PfADA [9],9 times
same,Ki,human ADA [6]; [13],> 10000 nM
same,inhibition of human ADA,human ADA [6],no inhibitory effect
"O[C@@H]1CNC=Nc2c1ncn2[C@H]1C[C@H](O)[C@@H](CSc2ccccc2)O1 [PhTDCF, 5′-phenylthio-2′-deoxycoformycin]",Ki,PfADA [5]; [13],60 ± 10 nM
"CCCSC[C@H]1O[C@@H](n2cnc3c2N=CNC[C@H]3O)C[C@@H]1O [PrTDCF, 5′-propylthio-2′-deoxycoformycin]",Ki,PfADA [5]; [13],12 ± 1 nM
same,binding affinity for PfADA relative to CF,PfADA [9],150 times
same,Ki,human ADA [6]; [13],> 10000 nM
same,binding to PaMTADA relative to MTDCF,PaMTADA [10],8 times
Nc1ncnc2c1ncn2[C@@H]1O[C@H](CO)[C@@H](O)[C@H]1O [adenosine],kcat,"PaMTADA [1]; substrate, 25 °C, pH 7.4",17 ± 1 s⁻¹
same,kcat,PfADA [3],1.8 ± 0.1 s⁻¹
same,Km,human ADA [4]; [11],22 ± 3 µM
same,kcat,human ADA [4]; [11],36 ± 1 s⁻¹
